The values that follow come from US9238650B2, “Solid forms of a pyrido-pyrimidinium inner salt” (E. I. DU PONT DE NEMOURS AND COMPANY, priority 2012, dated 2016).

The term density denotes mass per unit of volume.

Common to all, as to format: physicochemical
A short description of data set [1]: Solubility of Compound 1 in the test solvent, filtrate analyzed by HPLC. The settings on record: 22° C., 5 days, label = starting polymorph form(s). The procedure:
HPLC was used to determine the purity of Compound 1 and intermediates. An Agilent 1100/1200 series HPLC system with DAD/UV detector and reverse-phase column (Agilent Zorbax® SB C8 (4.6×150) mm, 3.5 μm, Part No. 863953-906) was used. Flow rate was 1 mL/min, run time 27 min, injection volume 3.0 μL, and the column oven temperature was 40° C. A mobile phase gradient according to Table 1 was used wherein mobile phase A was 0.03% by volume orthophosphoric acid and mobile Phase B was acetonitrile (HPLC grade). Mobile phase A was prepared by thoroughly mixing 0.3 mL of orthophosphoric acid (AR grade) with 999.7 mL of deionized water. Standard solutions were prepared by weighing 22.0±2.0 mg of the analytical standard in duplicate into separate 50-mL volumetric flasks, dissolving and diluting with the diluent. Samples were prepared by weighing 40.0±2.0 mg of the sample into a 100 mL standard volumetric flask, dissolving and diluting with the diluent. For analysis, the HPLC system and column were equilibrated with initial mobile phase. In the chromatographic sequence, blank samples, standard samples and test samples were run. The retention time for Compound 1 was about 22.2 min. Peaks appearing in the blank sample were not integrated, all other peaks were integrated and a % purity reported from the sample chromatogram. For wt % determination the concentration of test sample was calibrated against the standard sample.
(§1) Polymorph Forms A and B of Compound 1 were subjected to non-competitive and competitive interconversion experiments. […] For the competitive experiments, polymorph Forms A and B were mixed together and studied for the potential conversion to the more thermodynamically stable form. The starting polymorph form(s) were mixed with various solvents for 5 days at 22° C., and then filtered. The filtrate was analyzed by HPLC to determine the solubility of Compound 1 in the test solvent. The solids were dried and analyzed by pXRD.

The nature of data set [2]: Relative stability (non-competitive and competitive interconversion) of polymorph Forms A and B in various solvents at 22° C., solids analyzed by pXRD. The note with it: concluded from conversion of Form B to Form A in solvents at 22° C. The procedure: as §1
A detailed description of the individual experiments for Examples 6a to 6j is given below.
In Example 6a, Form B of Compound 1 (0.3 g) was mixed with acetone (5 g) at 22° C. for 5 days. The slurry was then filtered through a syringe filter (0.45 μm glass fiber, type Whatman GE Autovial) and dried in a vacuum oven at 40° C. for 48 hours. Analysis by pXRD indicated Form A of compound 1.
In Example 6b, Form B (0.3 g) and Form A (0.01 g) of Compound 1 were mixed with acetone (5 g) at 22° C. for 5 days. The slurry was then filtered through a syringe filter (0.45 μm glass fiber, type Whatman GE Autovial) and dried in a vacuum oven at 40° C. for 48 hours. Analysis by pXRD indicated Form A of Compound 1.
In Example 6c, Form B (0.3 g) of Compound 1 was mixed with tetrahydrofuran (5 g) at 22° C. for 5 days. […]

A short description of data set [3]: Temperature-dependent X-ray powder diffraction of polymorph Form A. The note with it: pure solid, heated from 25° C. to the melting point at 10° C. per minute. The procedure: To assess the stability of polymorph Form A of Compound 1 with respect to temperature, X-ray powder diffraction patterns were obtained while heating a sample of Form A from 25° C. to above its melting point. The measurement was conducted at the 5-IDD beam line at the Advanced Photon Source synchrotron located at the Argonne National Laboratory (Argonne, Ill., USA). A Differential-Scanning calorimeter (DSC, Model DSC600, Linkam Scientific Instruments, Tadworth, U.K.) was mounted in vertical orientation to allow insertion of the DSC into the X-ray beam. The DSC was positioned in the beam line to accept a 100-200 μm square beam under high vacuum. The standard quartz window was replaced with polyimide film (Kapton®, 8 μm thickness, DuPont, Wilmington, Del., USA). An internal thermocouple was installed for temperature recording. A circular charged couple device (CCD) detector (Model Mar165, 165 mm diameter, Marresearch GmbH, Norderstedt, Germany) was used to detect the X-rays scattered from the sample. The detector was equipped with an aluminum cone that covered the detector and extended 100 mm from the face of the detector. This cone was quipped with a beam stop support and 5×3 mm lead beam stop. The cone was continuously purged with helium to minimize air scattering. […]

Data set [4] in a line: Solid-liquid separation efficiency: time to complete filtration on a lab nutsche filter. The settings on record: for Filtration time: time required to complete filtration of 90 g from reaction mass. As to the method:
In separate experiments, about 90 grams of Polymorph Forms A and B of Compound 1 were prepared according to PREPARATION EXAMPLE 1 and 2, respectively. The solids were filtered from their reaction mass using a lab nutsche filter. The times to complete the filtrations (indicated by no further liquid dripping from the filter) were measured and are reported in Table 12.

Data set [5] in a line: Particle size distribution by laser diffraction particle size analyzer after dispersion in deionized water. The note with it: dispersed in deionized water; for D50: median particle size; for D[4, 3]: volume-weighted mean particle size. The procedure: After the observation of increased settling velocity of Polymorph Form A compared to Form B (see CHARACTERIZATION EXAMPLE 9), the particle size distributions of the two forms were measured. Form B of Compound 1 was prepared according to PREPARATION EXAMPLE 2. Some of the Form B thus prepared was converted to Form A according to PREPARATION EXAMPLE 5. The particle size distribution of both Form A and B samples were determined after dispersion in deionized water using a laser diffraction particle size analyzer (model Mastersizer 2000 by Malvern Instruments, Malvern, UK). The particle size distribution parameters D10, D50 and D90 are reported in Table 13 below, wherein D50 represents the median particle size of the distribution, i.e. 50% of the particles are smaller and 50% are larger than that size. D10 indicates the particle size at which 10% of all particles are smaller than that size. Similarly, D90 indicates the particle size at which 90% of all particles are smaller than that size. The volume-weighted mean particle sizes D[4,3] are also reported.

Data set [6] can be described thus: Crystal density by helium gas pygnometry. The text has this: However, once Form B has converted to Form A in the slurry, the particles start to settle to the bottom of the flask rapidly after stirring is turned off indicating increased particle size of the Form A crystals. […] High particle size and settling velocities are important process advantages for solid-liquid separation operations in commercial manufacturing. Large average particle size improve filtration and centrifugation steps by increased filtration speeds, higher throughputs, lower propensity to filter cake cracking and resulting filtrate by-passing, increased cake wash efficiency and increased product purity.

Entries after “also recorded” stand apart in the source; their conditions may differ. Where a name gives a salt, the structure may show the parent alone. Where only a bound is given, the exact number is not on record here.

Consider `Cc1cccn2c(=O)c(-c3cc(Cl)cc(Cl)c3)c([O-])[n+](Cc3cnc(Cl)s3)c12` [B + seed A, 1-[(2-chloro-5-thiazolyl)methyl]-3-(3,5-dichlorophenyl)-2-hydroxy-9-methyl-4-oxo-4H-pyrido[1,2-a]pyrimidinium inner salt], for which the “Concentration of Compound 1 in filtrate” value was 0.34 wt % in data set [1] (acetone); 0.09 wt % in data set [1] (ethyl acetate); 1.01 wt % in data set [1] (tetrahydrofuran); 0.023 wt % in data set [1] (toluene); less than 0.01 wt % in data set [1] (water).
As to `Cc1cccn2c(=O)c(-c3cc(Cl)cc(Cl)c3)c([O-])[n+](Cc3cnc(Cl)s3)c12` [Form A, 1-[(2-chloro-5-thiazolyl)methyl]-3-(3,5-dichlorophenyl)-2-hydroxy-9-methyl-4-oxo-4H-pyrido[1,2-a]pyrimidinium inner salt], in data set [2], the Relative thermodynamic stability result is given as “more thermodynamically stable than Form B”. The “Stability of the crystal form with respect to temperature (pXRD while heating)” value in data set [3] is “no crystal form conversion to another polymorph occurred; also recorded: physically and chemically stable in its pure solid form”. This molecule yielded a Filtration time in data set [4] of 0.9 min. In data set [5], the D10 turned out to be 13 μm; the D90 is reported as 73 μm; the D50 is on record as 34 μm; the “D[4, 3]” value is listed as 39 μm. In addition, the density in data set [6] was 1.597 g/mL.
Take `Cc1cccn2c(=O)c(-c3cc(Cl)cc(Cl)c3)c([O-])[n+](Cc3cnc(Cl)s3)c12` [Form B, 1-[(2-chloro-5-thiazolyl)methyl]-3-(3,5-dichlorophenyl)-2-hydroxy-9-methyl-4-oxo-4H-pyrido[1,2-a]pyrimidinium inner salt]: the “Concentration of Compound 1 in filtrate” value was 0.34 wt % in data set [1] (acetone); 0.18 wt % in data set [1] (ethyl acetate); 1.03 wt % in data set [1] (tetrahydrofuran); 0.049 wt % in data set [1] (toluene); less than 0.01 wt % in data set [1] (water). Further, the “Filtration time relative to Polymorph Form A” value in data set [4] (about 90 grams) was “more than 3 times”. Moreover, in data set [4], the Filtration time is reported as 3.0 min. Moreover, the D10 in data set [5] is 0.6 μm. In data set [5], this molecule had a D90 of 19 μm. This molecule came in with a D50 in data set [5] of 3.2 μm. Moreover, the “D[4, 3]” value in data set [5] worked out at 6.8 μm. Further, in data set [6], the density was determined as 1.582 g/mL.
